Source: US12552797B2, “Process for making (3-[cyclopropylethoxy(difluoro)methyl]-6-6[5-fluoro-6-(2,2,2-trifluoroethoxy-3-pyridyl]- [1,2,4]triazolo[4,3-a]pyrazine” (Praxis Precision Medicines, Inc., priority 2019, dated 2026)

Experiment: Stability of suspension formulations in 0.5% MC 400 cP/0.2% Tween 80 (HPLC, PSD)
Format: physicochemical
Protocol: For stability and purity testing of Compound 1 a high-performance liquid chromatography (HPLC) method was developed. The HPLC method used for chemical stability and purity testing was as follows:
To prepare suspension formulations of Compound 1, about 0.5 mg, 5 mg and 10 mg of Compound 1 were weighted into separate vials and 1 mL 0.5% MC 400 cP/0.2% Tween 80 was added to each vial. The materials were mixed together by Vortex and stirred at room temperature overnight (24 hrs). The stability of the suspension formulations was measured by quantifying the purity of Compound 1 using high pressure liquid chromatography (HPLC). […]
To prepare a suspension formulation comprising jet-milled Compound 1, 15 mg of jet-milled Compound 1 was weighed into a glass vial and then 10 mL of vehicle (0.5% MC 400 cP/0.2% Tween 80) was added to disperse it to reach Compound 1 concentration of 1.5 mg/mL. The suspension was thoroughly dispersed by homogenization for ˜30 seconds. The stability of the suspension was evaluated by HPLC and particle size distribution (PSD), and the results are summarized in Table 7. Based on HPLC and PSD, the suspension formulation comprising jet-milled Compound 1 was stable at ambient condition for 28 days.

[1] = jet milled, 0.5% MC 400 cP/0.2% Tween 80, target 1.5 mg/mL, 1 day
[2] = jet milled, 0.5% MC 400 cP/0.2% Tween 80, target 1.5 mg/mL, 6 days
[3] = jet-milled, 0.5% MC 400 cP/0.2% Tween 80, target 1.5 mg/mL, RT, Initial
[4] = jet-milled, 0.5% MC 400 cP/0.2% Tween 80, target 1.5 mg/mL, RT, day 1
[5] = jet-milled, 0.5% MC 400 cP/0.2% Tween 80, target 1.5 mg/mL, RT, day 2
[6] = jet-milled, 0.5% MC 400 cP/0.2% Tween 80, target 1.5 mg/mL, RT, day 3
[7] = jet-milled, 0.5% MC 400 cP/0.2% Tween 80, target 1.5 mg/mL, RT, day 6
[8] = jet-milled, 0.5% MC 400 cP/0.2% Tween 80, target 1.5 mg/mL, RT, day 7
[9] = jet-milled, 0.5% MC 400 cP/0.2% Tween 80, target 1.5 mg/mL, RT, day 14
[10] = jet-milled, 0.5% MC 400 cP/0.2% Tween 80, target 1.5 mg/mL, RT, day 21
[11] = jet-milled, 0.5% MC 400 cP/0.2% Tween 80, target 1.5 mg/mL, RT, day 28
[12] = un-milled, 0.5% MC 400 cP/0.2% Tween 80, target 0.5 mg/mL, 1 hr
[13] = un-milled, 0.5% MC 400 cP/0.2% Tween 80, target 0.5 mg/mL, 4 hrs
[14] = un-milled, 0.5% MC 400 cP/0.2% Tween 80, target 0.5 mg/mL, 7 days
[15] = un-milled, 0.5% MC 400 cP/0.2% Tween 80, target 5 mg/mL, 4 hrs
[16] = un-milled, 0.5% MC 400 cP/0.2% Tween 80, target 5 mg/mL, 7 days
[17] = un-milled, 0.5% MC 400 cP/0.2% Tween 80, target 10 mg/mL, 1 hr
[18] = un-milled, 0.5% MC 400 cP/0.2% Tween 80, target 10 mg/mL, 4 hrs
[19] = un-milled, 0.5% MC 400 cP/0.2% Tween 80, target 10 mg/mL, 7 days

Q: With CCOC(F)(F)c1nnc2cnc(-c3cnc(OCC(F)(F)F)c(F)c3)cn12 [Compound 1, 3-(ethoxydifluoromethyl)-6-(5-fluoro-6-(2,2,2-trifluoroethoxy)pyridin-3-yl)-[1,2,4]triazolo[4,3-a]pyrazine] as the compound, how does the appearance of suspensions (0.5, 5 and 10 mg/mL in 0.5% MC 400 cP/0.2% Tween 80, room temperature) read?
A: homogenous suspensions

Q: What about the Concentration [1] of the same compound?
A: 1440 µg/mL

Q: And the Purity [1]?
A: 99.4%

Q: And the Concentration [2]?
A: 1430 µg/mL

Q: What about the Purity [2] of the same compound?
A: 99.5%

Q: What about the Appearance [3] of the same compound?
A: Homogeneous

Q: And the Conc. [3]?
A: 1610 µg/mL

Q: What about the Purity [3] of the same compound?
A: 99.43%

Q: And the Appearance [4]?
A: Homogeneous

Q: And the Conc. [4]?
A: 1440 µg/mL

Q: What about the Purity [4] of the same compound?
A: 99.44%

Q: And the Appearance [5]?
A: Homogeneous

Q: And the Conc. [5]?
A: 1380 µg/mL

Q: And the Purity [5]?
A: 99.52%

Q: And the Appearance [6]?
A: Homogeneous

Q: What about the Conc. [6] of the same compound?
A: 1580 µg/mL

Q: What about the Purity [6] of the same compound?
A: 99.49%

Q: What about the Appearance [7] of the same compound?
A: Homogeneous

Q: And the Conc. [7]?
A: 1430 µg/mL

Q: And the Purity [7]?
A: 99.51%

Q: What about the Appearance [8] of the same compound?
A: Homogeneous

Q: What about the Conc. [8] of the same compound?
A: 1610 µg/mL

Q: And the Purity [8]?
A: 99.55%

Q: And the Appearance [9]?
A: Homogeneous

Q: What about the Conc. [9] of the same compound?
A: 1610 µg/mL

Q: What about the Purity [9] of the same compound?
A: 99.36%

Q: And the Appearance [10]?
A: Homogeneous

Q: What about the Conc. [10] of the same compound?
A: 1560 µg/mL

Q: And the “PSD (D90)” value [10]?
A: 6.97 um

Q: What about the Purity [10] of the same compound?
A: 99.58%

Q: And the Appearance [11]?
A: Homogeneous

Q: What about the Conc. [11] of the same compound?
A: 1640 µg/mL

Q: What about the “PSD (D90)” value [11] of the same compound?
A: 6.80 um

Q: And the Purity [11]?
A: 98.96%

Q: And the “stable at ambient condition (HPLC and PSD)” value (suspension of jet-milled Compound 1, 1.5 mg/mL, 0.5% MC 400 cP/0.2% Tween 80)?
A: 28 days

Q: And the Concentration [12]?
A: 580 µg/mL

Q: And the Purity [12]?
A: 97.46%

Q: And the Concentration [13]?
A: 450 µg/mL

Q: And the Purity [13]?
A: 96.65%

Q: What about the Concentration [14] of the same compound?
A: 490 µg/mL

Q: And the Purity [14]?
A: 97.85%

Q: And the Purity (un-milled, 0.5% MC 400 cP/0.2% Tween 80, target 5 mg/mL, 1 hr)?
A: 97.60%

Q: And the Concentration [15]?
A: 4720 µg/mL

Q: What about the Purity [15] of the same compound?
A: 97.84%

Q: What about the Concentration [16] of the same compound?
A: 5060 µg/mL

Q: What about the Purity [16] of the same compound?
A: 96.95%

Q: And the Concentration [17]?
A: 9690 µg/mL

Q: What about the Purity [17] of the same compound?
A: 96.86%

Q: What about the Concentration [18] of the same compound?
A: 9790 µg/mL

Q: What about the Purity [18] of the same compound?
A: 97.12%

Q: And the Concentration [19]?
A: 9720 µg/mL

Q: What about the Purity [19] of the same compound?
A: 96.71%
